Patent US20080234368A9, “Therapeutic compositions and methods of use” (Trustees of Dartmouth College, priority 1998, published 2008)

How the values were obtained:
[1] = system: COX-2; experiment: Western blot for COX-2 protein in stimulated primary macrophages; assay type: cell-based, mouse; settings: concentrations of 1 μM or less; IFN-γ 10 ng/ml, LPS 2 ng/ml, 12 h
Procedure: (§1) FIG. 14(A) illustrates Western blots; primary mouse macrophages; IFN-γ, 10 ng/ml; LPS, 2 ng/ml were added to cultures together with triterpenoids or dexamethasone (concentrations shown as […]); cells were harvested at 12 h. FIG. 14(B) illustrates Northern blots, RAW 264.7 macrophage-like cell line. IFN-γ, 10 ng/ml; LPS, 1 ng/ml; TNF-α, 10 ng/ml, were added to cultures together with CDDO or dexamethasone. RNA prepared after 12 h; GAPDH used as a loading control. FIG. 14(C) illustrates suppression of production of NO and PGEF in primary macrophages. For NO studies, cells were treated with IFN-γ, 10 ng/ml, together with CDDO (M), dexamethasone (O), TP-82 (□), or oleanolic acid (A). After 48 h, supernatants were analyzed for NO by the Griess reaction. For PGEF studies, cells were treated with IFN-γ, 5 ng/ml, and LPS, 5 ng/ml, together with the same set of inhibitors. After 48 h, PGE was measured in supernatants by immunoassay. Control values (no inhibition) for NO and PGE2 were 4.7 nmol/[…] and 2.2 ng/ml/2×10^5 cells, respectively. FIGS. (14D) and (14E) illustrate (human colon myofibroblasts) ^18Co cells grown in MEM/10% FBS; other methods are the same as reported above for macrophages. FIG. 14(D) illustrates Northern blots showing dose-response for suppression of COX-2 mRNA after induction with IL-1β (30 pg/ml). CDDO was added together with IL-1. […]

[2] = system: COX-2 mRNA; experiment: Northern blot for IL-1β-induced COX-2 mRNA in 18Co colon myofibroblasts; assay type: cell-based, human; settings: 18Co cells, IL-1β 30 pg/ml
Procedure: as §1

[3] = system: COX-2 mRNA; experiment: Northern blot for COX-2 mRNA in RAW 264.7 cells; assay type: cell-based, mouse; settings: CDDO 10^−6 M, RAW 264.7, 12 h
Procedure: as §1

[4] = system: THP-1 monocytic leukemia line; experiment: Differentiation of leukemia cells (data not shown); assay type: cell-based, human; settings: by itself or in combination with TGF-β1
[5] = system: iNOS mRNA; experiment: Northern blot for iNOS mRNA in RAW 264.7 cells; assay type: cell-based, mouse; settings: CDDO 10^−6 M, RAW 264.7, 12 h
Procedure: as §1

[6] = system: PC12 pheochromocytoma cells; experiment: Neuronal differentiation / neurite outgrowth, image analysis; assay type: cell-based, rat
Procedure: CDDO induces monocytic differentiation in the poorly differentiated LCDB acute myelogenous leukemia cell line, derived from a chemotherapy-resistant patient at the NCI Pediatric Oncology Branch. FIG. 11 illustrates LCDB cells seeded in RPMI 1640/2% FBS, either alone (11A), with 2.5 ng/ml TGF-β1 (11B), with 10^−8 M CDDO (11C), or with both TGF-β1 and CDDO (11D). After 48 h, cytospin slide preparations were made and stained for α-naphthyl acetate esterase activity (kit from Sigma). PC12 cells were cultured for 5 days in gridded dishes in DMEM/10% FBS and 5% horse serum (Smith et al., 1997), either alone (11E), with 100 ng/ml 7S NGF (11F), with 10^−6 M CDDO (11G), or with both NGF and CDDO (11H). […] Methods for quantitative image analysis of size of cells and neurites have been described (De 1a Torre et al., 1997). Control cells in FIG. 11E are approximately 10 μm in diameter. 3T3-L1 cells were grown to confluency in DMEM/5% calf serum, and then treated once with CDDO in DMEM/10% FBS (FIG. 12A) or with CDDO and/or LG100268 in DMEM/10% FBS (FIG. 12B). Every two days thereafter, medium was changed to DMEM/10% FBS, without added CDD0 or LG100268. Cells were harvested on day 8 (FIG. 12A) or day 6 (FIG. 12B), and GPDH was measured in lysates, using a standard assay for consumption of NADH at 340 nm (Wise and Green, 1979).
The rat pheochromocytoma cell line, PC12, has been widely used to study neuronal development and differentiation. Treatment of these tumor cells with NGF is known to induce a neuronal phenotype, with extensive neurite outgrowth (Greene and Rischler, 1976; Guroff 1985). CDDO markedly potentiates these effects of NGF. FIGS. 11E and F show the induction of neurite outgrowth by NGF (100 ng/ml). […] When used in combination with NGF, CDDO (FIG. 11H) almost doubled the number of primary neurites/cell (from 1.2±0.2 S.E.M. to 2.1±0.1, p<0.001), and caused a greater than 3-fold increase in length of neurites (from 28±6 to 99±9 microns, p<0.001), and a 5-fold increase in neurite branching/cell (from 0.23±0.06 to 1.13±0.08, p<0.001). Thus, CDDO enhances neuronal differentiation of PC12 cells by increasing cell size, as well as the extent and complexity of neurite arborization.

[7] = molecular target: T1, iNOS enzymatic activity (Mus musculus, UniProt P29477); experiment: NO production in RAW cells with enzyme synthesis already induced; assay type: cell-based; settings: added after enzyme synthesis induced; data not shown
T1 construct: added to RAW cells in which synthesis of these two enzymes has already been induced; endogenous in cells; host or cells: RAW 264.7 mouse macrophage-like cells, enzyme synthesis pre-induced
T1 sequence (P29477 whole entry): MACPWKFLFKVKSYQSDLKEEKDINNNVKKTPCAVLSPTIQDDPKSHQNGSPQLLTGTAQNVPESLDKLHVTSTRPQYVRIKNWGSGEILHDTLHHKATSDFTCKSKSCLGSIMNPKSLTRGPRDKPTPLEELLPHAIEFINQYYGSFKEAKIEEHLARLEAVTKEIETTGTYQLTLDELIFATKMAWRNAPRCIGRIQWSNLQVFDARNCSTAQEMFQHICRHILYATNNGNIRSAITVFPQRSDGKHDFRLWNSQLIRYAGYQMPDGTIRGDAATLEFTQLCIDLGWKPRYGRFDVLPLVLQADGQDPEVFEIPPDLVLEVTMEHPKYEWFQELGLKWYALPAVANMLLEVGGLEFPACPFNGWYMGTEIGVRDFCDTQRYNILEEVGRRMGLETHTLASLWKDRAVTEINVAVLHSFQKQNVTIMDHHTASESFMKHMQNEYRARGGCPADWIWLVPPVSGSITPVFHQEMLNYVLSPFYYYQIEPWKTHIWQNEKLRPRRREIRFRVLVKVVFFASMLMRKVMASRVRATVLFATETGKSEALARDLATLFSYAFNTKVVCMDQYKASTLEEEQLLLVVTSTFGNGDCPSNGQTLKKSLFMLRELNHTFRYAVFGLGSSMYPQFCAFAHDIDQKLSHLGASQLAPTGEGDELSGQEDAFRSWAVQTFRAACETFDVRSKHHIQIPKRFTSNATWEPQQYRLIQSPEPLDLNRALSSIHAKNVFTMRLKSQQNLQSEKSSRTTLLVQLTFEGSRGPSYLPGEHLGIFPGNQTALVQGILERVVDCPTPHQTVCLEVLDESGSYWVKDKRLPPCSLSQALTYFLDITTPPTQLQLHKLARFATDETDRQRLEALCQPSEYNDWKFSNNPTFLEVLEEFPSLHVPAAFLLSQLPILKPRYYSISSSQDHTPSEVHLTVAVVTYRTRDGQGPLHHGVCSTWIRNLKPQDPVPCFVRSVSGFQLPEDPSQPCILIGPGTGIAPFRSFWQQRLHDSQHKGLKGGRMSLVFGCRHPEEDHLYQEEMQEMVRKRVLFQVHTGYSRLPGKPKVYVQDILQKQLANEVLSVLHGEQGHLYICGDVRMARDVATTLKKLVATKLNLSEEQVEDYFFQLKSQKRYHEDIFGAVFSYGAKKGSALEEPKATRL
Description: These effects of CDDO have been seen in primary mouse macrophages, a mouse macrophage-like tumor cell line (RAW 264.7), and in non-neoplastic human colon fibroblasts. […] Neither iNOS nor COX-2 expression can be detected in these cells until they are stimulated by an inflammatory mediator such as IFN-γ, or LPS. […] The above effects on INOS and COX-2 are also reflected in the cumulative production of their respective enzyme products, NO and PGE2, as measured in primary macrophages (FIG. 14C). […] Likewise, the actions of CDDO are not blocked by the glucocorticoid antagonist, RU-486, which is known to bind to the glucocorticoid receptor (data not shown). In these regards, CDDO is identical to the other oleanolic acid derivatives previously studied (Suh et al., 1998).

[8] = CDDO 10^−6 M in combination with NGF 100 ng/ml, 5 days

CC1(C)CC[C@]2(C(=O)O)CC[C@]3(C)[C@H](C(=O)C=C4[C@@]5(C)C=C(C#N)C(=O)C(C)(C)[C@@H]5CC[C@]43C)[C@@H]2C1 [Compound 6, 2-cyano-3,12-dioxoolean-1,9-dien-28-oic acid]
expression of COX-2 protein [1]: blocked expression | induction of COX-2 mRNA [2]: blocked induction | lowering of COX-2 mRNA expression [3]: greater than 75% | differentiative effects [4]: differentiative effects | lowering of iNOS mRNA expression [5]: greater than 75% | cell morphology ([6]; CDDO 10^−6 M by itself, 5 days): larger, flatter morphology | neurite formation ([6]; CDDO 10^−6 M by itself, 5 days): does not induce neurite formation | length of neurites [6, 8]: 99±9 microns | neurite branching/cell [6, 8]: 1.13±0.08 | number of primary neurites/cell ([6]; CDDO 10^−6 M in combination with NGF 100 ng/ml, 5 days, ± S.E.M.): 2.1±0.1 | increase in length of neurites over NGF alone ([6]; CDDO in combination with NGF): greater than 3 fold | increase in neurite branching/cell over NGF alone ([6]; CDDO in combination with NGF): 5 fold | immediate effect on NO production (direct inhibition of iNOS) [7]: no immediate effect
